According to patent US12421260B2, “Neurokinin-1 antagonist” (SHANGHAI SHENGDI PHARMACEUTICAL CO., LTD, priority 2019, dated 2025):
Converted amounts (≈) assume the structure as drawn. Like-named read-outs stand apart in the source and are kept apart here. Each block holds one molecule with its values, some of them ahead of it.

Legend:
Red blood cells (RBC) = assay: Hemolytic effect (Test Example 8); format: cell-based, rabbits; conditions: rabbit red blood cell 2% suspension, PBS
Description: Red blood cells (RBC) were collected from the jugular vein or central ear artery of rabbits (10 ml of EDTA whole blood). The blood was put in a conical flask with glass beads and shaken for 10 minutes to remove fibrinogen, resulting in defibrinated blood. About 10 times the amount of sodium chloride solution was added to the defibrinated blood, which was then shaken well and centrifuged at 1500 rpm for 10 minutes. The supernatant was removed and the precipitated red blood cells were washed with sodium chloride injection for 3 times according to the above method, until the supernatant was observed colorless. The obtained red blood cells were prepared into a 2% (v/v) suspension with sodium chloride injection for later use.
The test samples (the compound of Example 5 and the compound of Example 19) were respectively dissolved in PBS (pH 7.4 or pH 5) and filtered to prepare 0.4 mg/ml, 0.8 mg/ml, 1.2 mg/ml, 1.6 mg/ml and 2 mg/ml solutions for later use.
A certain amount of test sample solution was added to the above […] for testing in the supernatant.
The sample should be further observed under a microscope, and if red blood cells can be seen as aggregated, then coagulation has occurred. The hemolytic effect of the compounds of the present disclosure was determined by using this method.

[1] = Metabolism in human plasma (Test Example 4); format: in vitro ADME; set-up: plasma concentration of the compounds of the examples: unit not given here
Description: (§1) 5 μL of the 16 μM working solution of the compound of Example 5 was added to 75 μL plasma at a final concentration of 1 μM. The samples were incubated in a 37° C. water bath for 0, 15, 30, 60, 90, 120 and 180 min. After completion of the incubation, 240 μL of internal standard containing acetonitrile was added into the samples which was then shaken on a shaker at 800 rpm for 10 min and centrifuged at 3700 rpm at 4° C. for 20 min. The supernatant was analyzed by LC-MS, and the injection volume was 2 μL.
(§2) The metabolism of the compounds of Example 1, Example 2 and Example 8 in the plasma of mouse, rat and human was determined by referring to the test method in Test Example 2.

[2] = Metabolism in plasma of rat (Test Example 4); format: in vitro ADME; set-up: unit not given here
Description: as §1, §2

[3] = Water solubility (Test Example 1); format: physicochemical; conditions: aqueous buffer, thermodynamic from solid
Description: 1.1. Preparation of Reagents
The 100 mL strength reagents were prepared as follows:
pH=3.0: phosphate buffer solution: 100 ml of 20 mmol/L NaH2PO4, 0.1M H3PO4, adjusting pH to 3.0.
pH=4.0: phosphate buffer solution: 100 ml of 20 mmol/L NaH2PO4, 0.1M H3PO4, adjusting pH to 4.0. […]
An appropriate amount of test compound was accurately weighed. The solution was added at a small amount each time for several times and stirred until the compound was dissolved, and the content of the compound in the solution was determined.

[4] = Chemical stability of the compounds (Test Example 1); format: physicochemical; conditions: purity loss after placing for 7 days; 4° C. and room temperature
Description: 2.1 Test of Stability of the Compounds
About 1 mg of sample was weighed into a vial, then the vial was placed in a vacuum bag and the bag was vacuumized. Then the bag was put into a container containing color-changing silica gel and sealed. Two parallel samples were prepared. Enough samples were prepared according to the sampling time point and placed at 4° C. and room temperature respectively.

[5] = Metabolism in plasma of mouse (Test Example 4); format: in vitro ADME; set-up: unit not given here
Description: as §1, §2

[6] = In vivo pharmacokinetic test in rats (Test Example 5); conditions: plasma, rat, intravenous bolus 2 mg/kg
Description: Rats were used as the test animals. The plasma drug concentration at different time points after administration of the compounds of Example 1 and Example 2 by injection was determined using LC/MS/MS method. The in vivo pharmacokinetic of the compounds in rats was studied, and the pharmacokinetic characteristics were evaluated.
A certain amount of the compounds of Example 1 and Example 2 were weighed and prepared into a pH=4.0 solution by using 20 mmol/L sodium dihydrogen phosphate for later use.
The drug was administered by intravenous bolus injection with an injection time of about 5 min, administration dose of 2 mg/kg, administration concentration of 0.4 mg/ml and administration volume of 5 ml/kg.
(§3) Blood was collected from the orbital vein before administration and 5 min, 0.25 h, 0.5 h, 1 h, 2 h, 4 h, 6 h, 8 h, 10 h, 24 h and 48 h after administration. About 0.6 mL was collected for each sample which was subject to anticoagulation using heparin sodium and placed on ice immediately after collection. The blood samples were placed in labeled centrifuge tubes after collection, and plasma was separated by centrifugation (centrifugation conditions: centrifugal force 2200 g, centrifugation at 2-8° C. for 10 min).

[7] = Pharmacokinetic test in cynomolgus monkeys, Example 5 (Test Example 6); format: in vivo; conditions: for AUC(0-t) / Cmax / Tmax: cynomolgus monkey, iv 2 mg/kg Example 5
Description: Cynomolgus monkeys were used as the test animals. The plasma drug concentration at different time points after iv administration of the compound of Example 5 by injection was determined using LC/MS/MS method. The in vivo pharmacokinetic of the compound of the present invention in cynomolgus monkeys was studied, and the pharmacokinetic characteristics were evaluated.
A certain amount of the compound of Example 5 was weighed and prepared into a pH=4.0 solution by using 20 mmol/L sodium dihydrogen phosphate for later use.
The drug was administered by intravenous with injection time of about 30 min, administration dose of 2 mg/kg, administration concentration of 0.4 mg/ml and administration volume of 5 ml/kg.
as §3, with “the femoral” for “the orbital”, “0.6 ml of” for “0.6 mL”, “each sample,” for “each sample”
The content of the compound of Example 5 and rolapitant in plasma samples was determined by LC/MS/MS.

[8] = Plasma stability test, conversion in fresh human plasma (Test Example 2); format: in vitro ADME; conditions: for Compound of Example 5 concentration in plasma: human plasma, 37° C.
Description: The compound of Example 5 and the compound of formula I.
Human fresh plasma was donated by volunteers with informed consent.
1.3 Preparation of Solution of the Compound
A certain amount of the compound of Example 5 was weighed and DMSO was added to prepare a 30 mM stock solution. A certain volume of the stock solution was diluted with DMSO to prepare solution I at a concentration of 1600 μM. Then a certain volume of the 1600 μM solution I was diluted with 45% methanol to prepare working solution II at a concentration of 16 μM. The 30 mM stock solution and the 1600 μM solution […] for the compound of formula I were also prepared by the above method.
as §1
1.5 Preparation of Standard Curve
The previously 1600 μM solution I was diluted with acetonitrile to prepare the standard curve working solution with concentrations of 160, 400, 1600, 4000, 8000, 16000 and 32000 ng/mL. The concentration of QC working solution was 480, 1920 and 25600 ng/mL. 5 μL of the standard curve working solution and QC working solution were added to 75 μL plasma to obtain the standard curve samples with final concentrations of 10, 25, 100, 250, 500, 1000 and 2000 ng/mL and QC samples with final concentrations of 30, 120 and 1600 ng/mL. 240 μL of acetocyano containing the internal standard was then added into the samples quickly, which was then shaken in a shaker at 800 rpm for 10 min and centrifuged at 3700 rpm at 4° C. for 20 min. The supernatant was collected and analyzed by LC-MS, and the injection volume was 2 μL.
The standard curve of the compound of formula I and QC sample were prepared by the above method.

Molecule: C[C@@H](OC[C@@]1(c2ccccc2)CC[C@]2(CCC(=O)N2)CN1C(=O)OCOP(=O)(O)O)c1cc(C(F)(F)F)cc(C(F)(F)F)c1 [Example 19]
concentration with no hemolytic effect (Red blood cells (RBC)): up to 2 mg/ml

plasma concentration of the compounds of the examples [1]: 99.00
plasma concentration of the compounds of the examples [2]: 97.70
solubility ([3]; PH = 5): 9050 µg/mL (≈ 13.3 mM)
plasma concentration of the compounds of the examples [5]: 91.17
AUC(0-t) ([6]; read-out: AUC0-t of the compound of the example): 41.6 ng·h/mL
AUC(0-inf) ([6]; read-out: AUC0-∞ of the compound of the example): 42.2 ng·h/mL
MRT inf ([6]; read-out: MRT 0-∞ of the compound of the example): 4.38 min
half-life ([6]; read-out: T1/2 of the compound of the example (converted)): 5.22 min
Molecule: C[C@@H](OC[C@@]1(c2ccccc2)CC[C@]2(CCC(=O)N2)CN1C(=O)OCCCOP(=O)(O)O)c1cc(C(F)(F)F)cc(C(F)(F)F)c1 [Example 2]
conversion into rolapitant (in words) [1]: basically no convertion into rolapitant in human plasma, or only a slight conversion
Chemical stability [4]: Good (purity reduced by <0.5% after placing for 7 days)

AUC(0-t) ([7]; analyte rolapitant): 4326.87 ± 1820.65 ng·h/mL
Cmax ([7]; analyte rolapitant): 315.25 ± 97.08 ng/mL
Tmax ([7]; analyte rolapitant): 8.4 ± 6 min
Compound of formula 1 concentration formed from Example 5 ([8]; human plasma incubated with 1 μM Example 5, 0 min): 0.00 µM
Compound of formula 1 concentration formed from Example 5 ([8]; human plasma incubated with 1 μM Example 5, 15 min): 0.78 µM
Compound of formula 1 concentration formed from Example 5 ([8]; human plasma incubated with 1 μM Example 5, 30 min): 1.18 µM
Compound of formula 1 concentration formed from Example 5 ([8]; human plasma incubated with 1 μM Example 5, 60 min): 1.22 µM
Compound of formula 1 concentration formed from Example 5 ([8]; human plasma incubated with 1 μM Example 5, 90 min): 1.31 µM
Compound of formula 1 concentration formed from Example 5 ([8]; human plasma incubated with 1 μM Example 5, 120 min): 1.28 µM
Compound of formula 1 concentration formed from Example 5 ([8]; human plasma incubated with 1 μM Example 5, 180 min): 1.02 µM
Molecule: (5S,8S)-8-[{(1R)-1-(3,5-bis-(trifluoromethyl)phenyl)-ethoxy}-methyl]-8-phenyl-1,7-diazaspiro[4.5]dec-2-one [Rolapitant, reference compound]

AUC(0-t) ([7]; plasma, analyte Example 5, read-out: AUC0-t): 0.77 ± 0.29 ng·h/mL
Cmax ([7]; plasma, analyte Example 5, read-out: Cmax): 2.28 ± 0.39 ng/mL
Tmax ([7]; plasma, analyte Example 5, read-out: Tmax): 6.6 ± 7.2 min
solubility ([3]; phosphate buffer, PH = 4): > 10000 µg/mL
Compound of Example 5 concentration in plasma ([8]; 0 min, 1 μM start): 1 µM
Compound of Example 5 concentration in plasma ([8]; 15 min): 0.53 µM
Compound of Example 5 concentration in plasma ([8]; 30 min): 0.12 µM
Compound of Example 5 concentration in plasma ([8]; 60 min): 0.01 µM
Compound of Example 5 concentration in plasma ([8]; 90 min): 0.00 µM
Compound of Example 5 concentration in plasma ([8]; 120 min): 0.00 µM
Compound of Example 5 concentration in plasma ([8]; 180 min): 0.00 µM
Molecule: CC(C)[C@H](N)C(=O)OCOC(=O)N1C[C@@]2(CCC(=O)N2)CC[C@@]1(CO[C@H](C)c1cc(C(F)(F)F)cc(C(F)(F)F)c1)c1ccccc1 [Example 5]
in vivo transformation into rolapitant (in words) ([7]; cynomolgus monkeys, iv 2 mg/kg): most of the compound were rapidly transformed into the active metabolite rolapitant
Chemical stability [4]: Good (purity reduced by <0.5% after placing for 7 days)
concentration with hemolytic effect (Red blood cells (RBC)): ≥ 40000 ng/mL

conversion rate into rolapitant [1]: ~46%
plasma concentration of the compounds of the examples [1]: 54.54
plasma concentration of the compounds of the examples [2]: 59.89
solubility ([3]; PH = 5): 1370 µg/mL (≈ 2.28 mM)
plasma concentration of the compounds of the examples [5]: 61.67
Molecule: C[C@@H](OC[C@@]1(c2ccccc2)CC[C@]2(CCC(=O)N2C(=O)CCC(=O)O)CN1)c1cc(C(F)(F)F)cc(C(F)(F)F)c1 [Example 8]
Chemical stability [4]: Moderate (purity reduced by 0.5%~2.0% after placing for 7 days)
